Here are results for 18 molecules from publication PMC2185977 (The Journal of Experimental Medicine, 1980).

Where only a bound is given, the exact number is not on record here.

One experiment concerns IgMMAY. The experiment is described as follows: Quantitative precipitin inhibition, IgMMAY + Klebsiella K21. It counts as binding, human. The note with it: for times more active than pyruvate in inhibiting the Klebsiella K21 precipitin reaction: IgMMAY; for inhibition of precipitation of IgMMAY by Klebsiella K21: 25 μl 1:5 dilution IgMMAY + 1.6 μg Klebsiella K21, Fig. 3B.
Experiment [1] has as its system IgMWEA. The experiment is described as follows: Quantitative precipitin inhibition, IgMWEA + Bacto agar 20C extract. It counts as binding, human. The note with it: for times more active than sodium pyruvate on a molar basis: inhibiting precipitation of IgMWEA by agar; for inhibition of precipitation of IgMWEA by agar: even at 100 μmol inhibitor.
The subject of a further experiment is anti-Klebsiella K11. The note with it: cited from earlier work.
In experiment [2] the test system is IgMWEA. The experiment is described as follows: Precipitin inhibition, IgMWEA-Helix pomatia galactan. It counts as binding, human. To be noted: data not shown.
The subject of experiment [3] is IgMWEA. The experiment is described as follows: Quantitative precipitin reaction of purified IgMWEA with polysaccharides. It counts as binding, human. The note with it: ~8 μg N purified IgMWEA, total volume 350 μl, Fig. 1A.

On to `CO[C@H]1O[C@@H]2CO[C@@](C)(C(=O)O)O[C@@H]2[C@H](O)[C@H]1O` (single isomer, unassigned) [methyl 4,6pyDGalα R isomer], for which the “times more active than pyruvate in inhibiting the Klebsiella K21 precipitin reaction” value in the experiment on IgMMAY turned out to be 150 times. Moreover, the “times more active than sodium pyruvate on a molar basis” value with IgMWEA [1] is listed as over 20 times.
For the molecule `CO[C@H]1O[C@@H]2CO[C@@](C)(C(=O)O)O[C@@H]2[C@H](O)[C@H]1O` (single isomer, unassigned) [methyl 4,6pyDGalα S isomer], the “inhibition of precipitation of IgMMAY by Klebsiella K21” value (“inhibition of precipitation of IgMMAY” for short) in the experiment with IgMMAY is “inactive”. Further, the “inhibition of Klebsiella K11-anti-Klebsiella K11” value in the experiment with anti-Klebsiella K11 is “does not inhibit”.
For the molecule `CO[C@@H]1O[C@@H]2COC(C)(C(=O)O)O[C@@H]2[C@H](O)[C@H]1O` (single isomer, unassigned) [methyl 4,6pyDGalβ R isomer, methyl 4,6-O-(1-carboxyethylidene) ~-o-galactopyranoside], in the experiment with IgMMAY, the “times more active than pyruvate in inhibiting the Klebsiella K21 precipitin reaction” value amounted to 150 times. In addition, in the experiment on IgMWEA [1], the “times more active than sodium pyruvate on a molar basis” value was over 20 times.
As to `O=P(O)(O)O[C@H]1O[C@H](CO)[C@H](O)[C@H](O)[C@H]1O` [D-galactose-1-phosphate], the “inhibition of precipitation of IgMMAY” value in the experiment on IgMMAY is recorded as “no inhibition”.
For `O=C[C@H](O)[C@@H](O)[C@@H](O)[C@H](O)COP(=O)(O)O` [D-galactose-6-phosphate], the “inhibition of precipitation of IgMMAY” value in the experiment on IgMMAY is “no inhibition”.
As to `O=P(O)(O)O[C@H]1O[C@H](CO)[C@@H](O)[C@H](O)[C@H]1O` [D-glucose-1-phosphate, D-glucose-l-phosphate], the “inhibition of precipitation of IgMMAY” value in the experiment on IgMMAY is “no inhibition”.
Consider `O=C[C@H](O)[C@@H](O)[C@@H](O)[C@H](O)CO` [DGal, D-galactose], for which the “inhibition of precipitation of IgMMAY” value with IgMMAY was “Neither DGal, its methyl a- and/~-glycosides, nor any of the other neutral sugars tested gave any inhibition”. In addition, the “inhibition of precipitation of IgMWEA by agar” value (shortened to “inhibition … by agar”) with IgMWEA [1] is given as “no inhibition”.
For `CO[C@H]1O[C@H](CO)[C@H](O)[C@H](O)[C@H]1O` [methyl α-DGal, methyl a-DGal], the “inhibition of precipitation of IgMMAY” value in the experiment with IgMMAY is given as “no inhibition”. Also, the “inhibition … by agar” value in the experiment on IgMWEA [1] is “no inhibition”.
As to `COC1OC(CO)C(O)C(O)C1O` (stereo not drawn) [methyl β-DGal, methyl /~-DGal], the “inhibition of precipitation of IgMMAY” value in the experiment with IgMMAY is reported as “no inhibition”. In addition, the “inhibition … by agar” value in the experiment on IgMWEA [1] is listed as “no inhibition”.
`CC(O)C(=O)[O-].[Na+]` (stereo not shown) [sodium lactate]: the “inhibition of precipitin reaction of IgMWEA-Helix pomatia galactan” value (“inhibition … of IgMWEA-Helix pomatia galactan” below) in the experiment with IgMWEA [2] was “inactive”.
Take `CCC(=O)[O-].[Na+]` [sodium propionate]: in the experiment with IgMWEA [2], the “inhibition … of IgMWEA-Helix pomatia galactan” value was “inactive”.
For `CC(=O)C(=O)O` [sodium pyruvate, Sodium pyruvate], the “inhibition of precipitation of IgMMAY” value in the experiment with IgMMAY was “better than lactate and propionate”. In addition, the “inhibition … of IgMWEA-Helix pomatia galactan” value in the experiment with IgMWEA [2] was “inhibited”.
On to Larch arabinogalactan, for which the “precipitin reaction with IgMWEA” value in the experiment with IgMWEA [3] is “inactive”.
With agarose, in the experiment on IgMWEA [3], the “precipitin reaction with IgMWEA” value is “inactive”.
On the same count and under the same terms, the same measure for dextran sulfate: “did react”; for heparin: “failed to precipitate”; for keratosulfate: “failed to precipitate”.
Take xanthan gum: the “precipitin reaction with IgMWEA” value with IgMWEA [3] is recorded as “failed to precipitate”.
